In general, Ki refers to a dissociation constant, usually derived from enzyme kinetics or from competition with a known ligand. Read a high Ki as a looser hold on the target.

In this experiment the target is T1, Thermolysin (Bacillus thermoproteolyticus, UniProt P00800).
T1 sequence (P00800 whole entry): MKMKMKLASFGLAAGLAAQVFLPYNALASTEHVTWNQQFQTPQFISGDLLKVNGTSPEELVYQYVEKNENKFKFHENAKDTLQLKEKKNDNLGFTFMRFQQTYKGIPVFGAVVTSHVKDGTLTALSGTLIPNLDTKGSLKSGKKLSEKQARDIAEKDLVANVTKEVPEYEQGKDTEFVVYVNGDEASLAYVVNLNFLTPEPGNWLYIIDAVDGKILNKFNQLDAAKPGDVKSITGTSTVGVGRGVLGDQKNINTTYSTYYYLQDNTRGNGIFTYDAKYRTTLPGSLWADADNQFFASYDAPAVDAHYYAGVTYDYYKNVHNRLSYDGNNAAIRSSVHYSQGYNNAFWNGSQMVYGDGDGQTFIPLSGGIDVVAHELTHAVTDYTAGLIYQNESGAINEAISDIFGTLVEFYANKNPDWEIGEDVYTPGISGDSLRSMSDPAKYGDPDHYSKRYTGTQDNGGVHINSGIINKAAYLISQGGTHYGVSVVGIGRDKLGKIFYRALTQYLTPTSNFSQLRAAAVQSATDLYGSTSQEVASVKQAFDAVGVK
As to the kind of experiment: Competitive inhibition of Bacillus thermoproteolyticus thermolysin using N-[3-(2-furyl)acryloyl]Gly-L-Leu-NH2 as substrate by Dixon plot analysis.
In the case of `NC(=O)[C@H](Cc1ccccc1)C[N+](=O)[O-]`, affinity was put at a Ki of 7600 nM.

For `NC(=O)[C@@H](Cc1ccccc1)C[N+](=O)[O-]`, the affinity corresponds to a Ki of 663000 nM.

As to `COC(=O)[C@H](Cc1ccccc1)NC(=O)[C@H](Cc1ccccc1)C[N+](=O)[O-]`, the Ki amounted to 950 nM. This Ki is about 700-fold lower than that of the compound before.

The compound `COC(=O)[C@H](Cc1ccccc1)NC(=O)[C@@H](Cc1ccccc1)C[N+](=O)[O-]` registered a Ki of 79000 nM. Against the preceding compound, the Ki is about 83-fold higher.

For `COC(=O)[C@@H](Cc1ccccc1)NC(=O)[C@H](Cc1ccccc1)C[N+](=O)[O-]`, the Ki came to 1400 nM.

For `COC(=O)[C@@H](Cc1ccccc1)NC(=O)[C@@H](Cc1ccccc1)C[N+](=O)[O-]`, the affinity, expressed as Ki, was 86000 nM.

`COC(=O)[C@H](Cc1ccccc1)NC(=O)[C@H](CC(C)C)C[N+](=O)[O-]` displayed a Ki of 840 nM.

`COC(=O)[C@H](Cc1ccccc1)NC(=O)[C@@H](CC(C)C)C[N+](=O)[O-]` gave a Ki of 7200 nM.

With `COC(=O)[C@H](CC(C)C)NC(=O)[C@H](Cc1ccccc1)C[N+](=O)[O-]`, the Ki amounted to 370 nM.

In turn, `COC(=O)[C@H](CC(C)C)NC(=O)[C@@H](Cc1ccccc1)C[N+](=O)[O-]` gave a Ki of 2400 nM.

As to `COC(=O)[C@H](CC(C)C)NC(=O)[C@H](CC(C)C)C[N+](=O)[O-]`, affinity was put at a Ki of 83 nM.

In turn, `COC(=O)[C@H](CC(C)C)NC(=O)[C@@H](CC(C)C)C[N+](=O)[O-]` displayed a Ki of 770 nM.

Compound `NC(=O)C(Cc1ccccc1)C[N+](=O)[O-]` (racemic) had a Ki of 36000 nM. This Ki is about 47-fold higher than that of the compound before.

For the origin of these results see ChEMBL document CHEMBL3217754, “Nitro-based inhibitors against thermolysin” (Medchemcomm, 2011).
